According to the CheMixHub viscosity set:
± gives the uncertainty stated by the source.

Assay: xn = mol fraction of the nth substance listed
Details: 101 kPa

NCCN + OCCCCO
viscosity [mPa·s]
Details	293.15 K	298.15 K	303.15 K	308.15 K	313.15 K	318.15 K
x1 = 0.0733	100 ± 14	74.8 ± 6.3	55.2 ± 1.2	43.2 ± 2.1	33.4 ± 1.7	–
x1 = 0.1427	101 ± 15	75.2 ± 6.4	55.3 ± 1.2	44.5 ± 2.2	33.8 ± 1.7	–
x1 = 0.2094	98.8 ± 14	72.8 ± 5.7	53.1 ± 0.72	42.5 ± 2.1	32 ± 1.6	28.8 ± 1.4
x1 = 0.2728	92.3 ± 12	67.6 ± 4.3	49.1 ± 2.4	39.1 ± 1.9	29.5 ± 1.5	25.8 ± 1.3
x1 = 0.3334	82.3 ± 8.5	60.1 ± 2.3	43.5 ± 2.1	34.4 ± 1.7	25.7 ± 1.3	22.6 ± 1.1
x1 = 0.3913	69.3 ± 4.7	50.5 ± 0.29	36.8 ± 1.8	29.2 ± 1.5	22 ± 1.1	19.3 ± 0.99
x1 = 0.4467	55.9 ± 1.3	40.8 ± 2	29.9 ± 1.5	23.7 ± 1.2	18.2 ± 0.94	16.1 ± 0.85
x1 = 0.4999	42.7 ± 2.1	31.5 ± 1.6	23.4 ± 1.2	19 ± 0.98	14.5 ± 0.77	12.9 ± 0.7
x1 = 0.551	32.1 ± 1.6	23.8 ± 1.2	18 ± 0.93	14.6 ± 0.78	11.3 ± 0.62	10.3 ± 0.57
x1 = 0.5999	23.8 ± 1.2	17.9 ± 0.93	13.7 ± 0.73	11.3 ± 0.62	8.84 ± 0.51	8.14 ± 0.47
x1 = 0.6469	17.4 ± 0.91	13.2 ± 0.71	10.2 ± 0.57	8.63 ± 0.5	7.05 ± 0.42	6.33 ± 0.39
x1 = 0.6921	12.7 ± 0.69	9.92 ± 0.56	7.8 ± 0.46	6.62 ± 0.4	5.34 ± 0.34	4.99 ± 0.33
x1 = 0.7358	9.34 ± 0.53	7.44 ± 0.44	5.91 ± 0.37	5.11 ± 0.33	4.17 ± 0.28	3.95 ± 0.26
x1 = 0.7777	7.02 ± 0.42	5.61 ± 0.35	4.57 ± 0.3	4 ± 0.26	3.28 ± 0.22	3.13 ± 0.21
x1 = 0.8181	5.28 ± 0.34	4.3 ± 0.28	3.53 ± 0.23	3.15 ± 0.21	2.61 ± 0.18	2.51 ± 0.17
x1 = 0.8572	4.06 ± 0.27	3.38 ± 0.23	2.78 ± 0.19	2.5 ± 0.17	2.1 ± 0.14	2.02 ± 0.14
x1 = 0.9311	2.51 ± 0.17	2.11 ± 0.14	1.78 ± 0.13	1.63 ± 0.12	1.41 ± 0.11	1.37 ± 0.11
